{"source": "patent US12060588B2", "about": "“Methods of editing DNA methylation” (Whitehead Institute for Biomedical Research, priority 2016, dated 2024)", "key": {"Npas4": {"test_system": "Npas4", "assay": "Npas4 expression in mouse cortical neurons (RT-qPCR)", "format": "cell-based", "settings": "with the 4 BDNF promoter IV gRNAs", "protocol": "FIGS. 11A-11L depict targeted demethylation of BDNF promoter IV by dCas9-Tet1 in neurons. […] PAM for each gRNA is highlighted by a red box. […] Note that cultured neurons were treated with AraC on DIV2 to halt cell division in glial cells and neural progenitors. […] FIG. 11C provides EDU labeling analysis for the mouse primary neurons over the course of KCl treatment for 24 hrs. Note that extremely few EDU positive cells were observed. Stained in red for EDU, green for MAP2 and DAPI for nuclei. Scale bar: 500 um. FIG. 11D Upper panel: provides quantification of neuronal density over the course of KCl treatment. The post-mitotic neuron density remains steadily around 4.5×10^4/cm2 over time. Bars represent mean±SD of three experimental replicates. Lower panel: provides quantification of the EDU positive cells over the course of KCl treatment. Less than 2% of the cells are EDU-positive over 24 hrs. Bars represent mean±SD of three experimental replicates. FIG. 11E provides confocal micrographs of BDNF induction by ectopic expression of dCas9-Tet1 and a set of 4 gRNAs targeting BDNF promoter IV. Stained in green for BDNF, magenta for MAP2, red for Cherry and blue for DAPI. […]\nCells were harvested using Trizol followed by Direct-zol (Zymo Research), according to manufacturer's instructions. […] Quantitative PCR reactions were prepared with SYBR Green (Invitrogen), and performed in 7900HT Fast ABI instrument. […]"}, "BDNF promoter IV": {"test_system": "BDNF promoter IV", "assay": "Bisulfite sequencing of BDNF promoter IV in mouse cortical neurons", "format": "cell-based", "settings": "with 4 BDNF gRNAs, in contrast to gRNA negative controls", "protocol": "FIGS. 3A-3E depict targeted demethylation of BDNF promoter IV by dCas9-Tet1 to activate BDNF in neurons. FIG. 3A provides a schematic representation of targeting BDNF promoter IV by dCas9-Tet1 (dC-T) with specific gRNAs to erase methylation and activate BDNF expression. […] Bars are mean t SD of three biological replicates. FIG. 3C provides representative confocal images for BDNF induction in FIG. 3B. Top panel: BDNF expression was induced by 50 mM KCl treatment for 6 hrs. […] Stained in red for MAP2 (top two panels) or Cherry (bottom two panels), green for BDNF, blue for DAPI and grey for dCas9. Scale bar: 50 um. FIG. 3D depicts bisulfite sequencing of neurons in FIG. 3C. […] Shown is the mean percentage±SD of two biological replicates.\nDNA replication-independent active demethylation has been proposed to operate in post-mitotic neurons (Guo et al., 2011; Martinowich et al., 2003). To test whether active demethylation can be induced in post-mitotic neurons, we applied the dCas9-Tet1 system to study the regulation of the BDNF gene. BDNF expression can be induced by neuronal activity accompanied by demethylation of its promoter IV (Chen et al., 2003; Martinowich et al., 2003). We designed 4 gRNAs targeting 11 CpGs in BDNF promoter IV (FIG. 11A) to determine whether dCas9-Tet1 can activate BDNF by inducing demethylation of this promoter (FIG. 3A). […]"}, "[1]": {"test_system": "MyoD distal enhancer (DMR-5) / MyoD expression", "assay": "MyoD expression in C3H10T1/2 cells (RT-qPCR)", "format": "cell-based, mouse"}}, "data": [{"substance": "dCas9-Tet1: catalytically inactive Cas9 (dCas9) fused through NLS to the Tet1 catalytic domain, SEQ ID NO: 159; lentivirally expressed with gRNAs", "values": [{"measurement": "induction of Npas4 expression", "setting": "Npas4", "result": "did not induce Npas4 expression"}, {"measurement": "methylation of BDNF promoter IV", "setting": "BDNF promoter IV", "result": "significantly reduced methylation"}, {"measurement": "induction of MyoD expression", "setting": "[1]; MyoD DMR-5 gRNAs combined with 5-Aza treatment (48-hour)", "result": "higher induction of MyoD"}, {"measurement": "induction of MyoD expression", "setting": "[1]; with 4 gRNAs targeting DMR-5, C3H10T1/2 cells, 2 days, Cherry positive sorted", "result": 3, "unit": "fold"}]}]}
